Measured values: ChEMBL document CHEMBL1201861, “Genomics of Drug Sensitity in Cancer screening data, Wellcome Trust Sanger Institute”
Where a name gives a salt, the structure may show the parent alone.

Assays:
Assay in all cases: cells
Format in all cases: functional, cell-based, Homo sapiens
DMS-153 = system: DMS-153
Description: SANGER: Inhibition of human DMS-153 cell growth in a cell viability assay.

EHEB = system: EHEB;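 further: growth inhibition of human EHEB cells, read out with a cell viability assay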
Description: SANGER: Inhibition of human EHEB cell growth in a cell viability assay.

KARPAS-422 = system: KARPAS-422
Description: SANGER: Inhibition of human KARPAS-422 cell growth in a cell viability assay.

LU-165 = system: LU-165
Description: SANGER: Inhibition of human LU-165 cell growth in a cell viability assay.

MOLT-13 = settings: Homo sapiens, MOLT-13;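 further: IC50 for suppression of MOLT-13 cell growth, read out with a cell viability assay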
Description: SANGER: Inhibition of human MOLT-13 cell growth in a cell viability assay.

NB1 = system: NB1;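 further: reduction of NB1 cell proliferation, read out with a viability assay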
Description: SANGER: Inhibition of human NB1 cell growth in a cell viability assay.

NB14 = settings: Homo sapiens, NB14;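 further: growth inhibition of NB14 cells measured with a cell viability assay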
Description: SANGER: Inhibition of human NB14 cell growth in a cell viability assay.

NCI-H2141 = system: NCI-H2141;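 further: growth inhibition of human NCI-H2141 cells, read out with a cell viability assay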
Description: SANGER: Inhibition of human NCI-H2141 cell growth in a cell viability assay.

NCI-H2196 = system: NCI-H2196;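 further: cell viability assay used as the readout of growth inhibition in NCI-H2196 cells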
Description: SANGER: Inhibition of human NCI-H2196 cell growth in a cell viability assay.

NCI-H64 = system: NCI-H64;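 further: growth inhibition of NCI-H64 cells, read out with a cell viability assay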
Description: SANGER: Inhibition of human NCI-H64 cell growth in a cell viability assay.

SNU-16 = system: SNU-16;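 further: growth inhibition of human SNU-16 cells, determined with a cell viability readout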
Description: SANGER: Inhibition of human NCI-SNU-16 cell growth in a cell viability assay.

BC-3 = system: BC-3;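 further: cell viability assay measuring growth inhibition of human BC-3 cells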
Description: SANGER: Inhibition of human BC-3 cell growth in a cell viability assay.

WSU-NHL = system: WSU-NHL;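 further: growth inhibition of human WSU-NHL cells, read out with a cell viability assay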
Description: SANGER: Inhibition of human WSU-NHL cell growth in a cell viability assay.

COLO-792 = system: COLO-792
Description: SANGER: Inhibition of human COLO-792 cell growth in a cell viability assay.

CaR-1 = system: CaR-1;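 further: growth inhibition of human CaR-1 cancer cells, read out with a cell viability assay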
Description: SANGER: Inhibition of human CaR-1 cell growth in a cell viability assay.

Capan-2 = system: Capan-2;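 further: Capan-2 cell growth inhibition, read out with a viability assay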
Description: SANGER: Inhibition of human Capan-2 cell growth in a cell viability assay.

ChaGo-K-1 = system: ChaGo-K-1;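 further: growth inhibition of ChaGo-K-1 cells, read out with a cell viability assay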
Description: SANGER: Inhibition of human ChaGo-K-1 cell growth in a cell viability assay.

DMS-273 = system: DMS-273
Description: SANGER: Inhibition of human DMS-273 cell growth in a cell viability assay.

FaDu = system: FaDu;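 further: cell viability readout of growth inhibition in FaDu cells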
Description: SANGER: Inhibition of human FADU cell growth in a cell viability assay.

G-401 = system: G-401
Description: SANGER: Inhibition of human G-401 cell growth in a cell viability assay.

GMS-10 = system: GMS-10;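 further: growth inhibition of GMS-10 cells, read out as cell viability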
Description: SANGER: Inhibition of human GMS-10 cell growth in a cell viability assay.

HCC1954 = system: HCC1954;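 further: growth inhibition of human HCC1954 cells, read out with a cell viability assay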
Description: SANGER: Inhibition of human HCC1954 cell growth in a cell viability assay.

HN = system: HN
Description: SANGER: Inhibition of human HN cell growth in a cell viability assay.

HOS = system: HOS;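 further: growth inhibition of human HOS cells, read out with a cell viability assay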
Description: SANGER: Inhibition of human HOS cell growth in a cell viability assay.

HT-1080 = system: HT-1080
Description: SANGER: Inhibition of human HT-1080 cell growth in a cell viability assay.

HT55 = system: HT55;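 further: cell viability readout measuring growth inhibition of human HT55 cells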
Description: SANGER: Inhibition of human HT55 cell growth in a cell viability assay.

Hs-578T = system: Hs-578T
Description: SANGER: Inhibition of human Hs-578-T cell growth in a cell viability assay.

KYSE-180 = system: KYSE-180;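 further: growth inhibition of KYSE-180 cells, read out with a cell viability assay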
Description: SANGER: Inhibition of human KYSE-180 cell growth in a cell viability assay.

KYSE-450 = system: KYSE-450;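 further: cell growth inhibition measured by a viability assay in human KYSE-450 cells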
Description: SANGER: Inhibition of human KYSE-450 cell growth in a cell viability assay.

MC-IXC = system: MC-IXC;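 further: growth inhibition of MC-IXC cells, read out with a cell viability assay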
Description: SANGER: Inhibition of human MC-IXC cell growth in a cell viability assay.

MDA-MB-157 = system: MDA-MB-157
Description: SANGER: Inhibition of human MDA-MB-157 cell growth in a cell viability assay.

NCI-H1623 = system: NCI-H1623;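 further: cell viability assay used as the read-out for growth inhibition of NCI-H1623 cells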
Description: SANGER: Inhibition of human NCI-H1623 cell growth in a cell viability assay.

NCI-H1693 = system: NCI-H1693;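 further: growth inhibition of the human cell line, read out with a cell viability assay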
Description: SANGER: Inhibition of human NCI-H1693 cell growth in a cell viability assay.

NCI-H1703 = system: NCI-H1703;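 further: growth inhibition of NCI-H1703 cells, read out via a cell viability assay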
Description: SANGER: Inhibition of human NCI-H1703 cell growth in a cell viability assay.

NCI-H1792 = system: NCI-H1792;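 further: growth inhibition of human NCI-H1792 cells, read out as cell viability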
Description: SANGER: Inhibition of human NCI-H1792 cell growth in a cell viability assay.

NCI-H2122 = system: NCI-H2122;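 further: growth inhibition of the cells, read out with a cell viability assay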
Description: SANGER: Inhibition of human NCI-H2122 cell growth in a cell viability assay.

NCI-H460 = system: NCI-H460;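 further: cell viability assay scoring growth inhibition of human NCI-H460 cells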
Description: SANGER: Inhibition of human NCI-H460 cell growth in a cell viability assay.

NCI-H522 = system: NCI-H522;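 further: cell viability assay measuring growth inhibition of human NCI-H522 cells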
Description: SANGER: Inhibition of human NCI-H522 cell growth in a cell viability assay.

OE19 = system: OE19;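 further: growth inhibition of OE19 cells, measured through a cell viability read-out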
Description: SANGER: Inhibition of human OE19 cell growth in a cell viability assay.

RVH-421 = system: RVH-421
Description: SANGER: Inhibition of human RVH-421 cell growth in a cell viability assay.

SK-OV-3 = system: SK-OV-3;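 further: growth inhibition of SK-OV-3 human cells, read out with a cell viability assay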
Description: SANGER: Inhibition of human SK-OV-3 cell growth in a cell viability assay.

SW-620 = system: SW-620;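 further: growth inhibition of human SW-620 cells, measured by a cell viability assay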
Description: SANGER: Inhibition of human SW620 cell growth in a cell viability assay.

T-24 = system: T-24;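 further: growth inhibition of T-24 cells, read out with a cell viability assay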
Description: SANGER: Inhibition of human T-24 cell growth in a cell viability assay.

A2780 = system: A2780;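 further: growth inhibition of A2780 cells, read out with a cell viability assay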
Description: SANGER: Inhibition of human A2780 cell growth in a cell viability assay.

CAL-12T = system: CAL-12T;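 further: growth inhibition of human CAL-12T cells, read out with a cell viability assay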
Description: SANGER: Inhibition of human CAL-12T cell growth in a cell viability assay.

CAL-54 = system: CAL-54;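 further: growth inhibition of CAL-54 cells, read out by a viability measurement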
Description: SANGER: Inhibition of human CAL-54 cell growth in a cell viability assay.

UMUC3 = system: UMUC3;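 further: growth inhibition of human UM-UC-3 cells, read out with a cell viability assay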
Description: SANGER: Inhibition of human UM-UC-3 cell growth in a cell viability assay.

COLO-680N = system: COLO-680N;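 further: cell viability assay used to measure inhibition of COLO-680N cell growth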
Description: SANGER: Inhibition of human COLO-680N cell growth in a cell viability assay.

In the case of COc1cc(-c2nn([C@H]3CC[C@H](N4CCN(C(C)=O)CC4)CC3)c3ncnc(N)c23)ccc1NC(=O)c1cc2ccccc2n1C, the IC50 (DMS-153; Homo sapiens, DMS-153) is reported as over 5.12 µM, the IC50 (EHEB; Homo sapiens, EHEB) is reported as over 5.12 µM and the IC50 (KARPAS-422; Homo sapiens, KARPAS-422) is reported as over 5.12 µM. The IC50 (LU-165; Homo sapiens, LU-165) was over 5.12 µM, the IC50 (MOLT-13) was over 5.12 µM and the IC50 (NB1; Homo sapiens, NB1) was over 5.12 µM. For the same molecule, the IC50 (NB14) was over 5.12 µM, the IC50 (NCI-H2141; Homo sapiens, NCI-H2141) was over 5.12 µM and the IC50 (NCI-H2196; Homo sapiens, NCI-H2196) was over 5.12 µM. For the same molecule, the IC50 (NCI-H64; Homo sapiens, NCI-H64) was over 5.12 µM, the IC50 (SNU-16; Homo sapiens, SNU-16) was over 5.12 µM and the IC50 (BC-3; Homo sapiens, BC-3) was over 5.12 µM. For the same molecule, the IC50 (WSU-NHL; Homo sapiens, WSU-NHL) was over 5.12 µM.

With COc1cc2ncn(-c3cc(OCc4ccccc4C(F)(F)F)c(C(N)=O)s3)c2cc1OC [GW843682X] the IC50 (DMS-153; Homo sapiens, DMS-153) was over 0.256 µM, the IC50 (EHEB; Homo sapiens, EHEB) was over 0.256 µM and the IC50 (KARPAS-422; Homo sapiens, KARPAS-422) was 0.21 µM. It also gave an IC50 (LU-165; Homo sapiens, LU-165) of over 0.256 µM, an IC50 (MOLT-13) of 0.0121 µM and an IC50 (NB1; Homo sapiens, NB1) of 0.0351 µM. The IC50 (NB14) was over 0.256 µM, the IC50 (NCI-H2141; Homo sapiens, NCI-H2141) was 0.159 µM and the IC50 (NCI-H2196; Homo sapiens, NCI-H2196) was over 0.256 µM. For the same molecule, the IC50 (NCI-H64; Homo sapiens, NCI-H64) was over 0.256 µM, the IC50 (SNU-16; Homo sapiens, SNU-16) was 0.0205 µM and the IC50 (BC-3; Homo sapiens, BC-3) was over 0.256 µM. It also gave an IC50 (WSU-NHL; Homo sapiens, WSU-NHL) of over 0.256 µM.

Work on COC1=CC(c2cc3ccccc3[nH]2)=N/C1=C\c1[nH]c(C)cc1C [OBATOCLAX MESYLATE] yielded an IC50 (COLO-792; Homo sapiens, COLO-792) of 0.132 µM, an IC50 (CaR-1; Homo sapiens, CaR-1) of 3.98 µM and an IC50 (Capan-2; Homo sapiens, Capan-2) of 0.666 µM. It also gave an IC50 (ChaGo-K-1; Homo sapiens, ChaGo-K-1) of 0.612 µM, an IC50 (DMS-153; Homo sapiens, DMS-153) of 2.17 µM and an IC50 (DMS-273; Homo sapiens, DMS-273) of 0.0285 µM. For the same molecule, the IC50 (EHEB; Homo sapiens, EHEB) was 0.823 µM, the IC50 (FaDu; Homo sapiens, FaDu) was 0.426 µM and the IC50 (G-401; Homo sapiens, G-401) was 0.0309 µM. For the same molecule, the IC50 (GMS-10; Homo sapiens, GMS-10) was 2.58 µM, the IC50 (HCC1954; Homo sapiens, HCC1954) was 5.86 µM and the IC50 (HN; Homo sapiens, HN) was under 0.0625 µM. It also gave an IC50 (HOS; Homo sapiens, HOS) of 0.0347 µM, an IC50 (HT-1080; Homo sapiens, HT-1080) of 0.511 µM and an IC50 (HT55; Homo sapiens, HT55) of 2.79 µM. For the same molecule, the IC50 (Hs-578T; Homo sapiens, Hs-578T) was 0.183 µM, the IC50 (KARPAS-422; Homo sapiens, KARPAS-422) was 0.166 µM and the IC50 (KYSE-180; Homo sapiens, KYSE-180) was 0.0614 µM. It also gave an IC50 (KYSE-450; Homo sapiens, KYSE-450) of under 0.0625 µM, an IC50 (LU-165; Homo sapiens, LU-165) of 5.99 µM and an IC50 (MC-IXC; Homo sapiens, MC-IXC) of 0.345 µM. The IC50 (MDA-MB-157; Homo sapiens, MDA-MB-157) was 0.823 µM, the IC50 (NB1; Homo sapiens, NB1) was 0.279 µM and the IC50 (NCI-H1623; Homo sapiens, NCI-H1623) was 3.09 µM. For the same molecule, the IC50 (NCI-H1693; Homo sapiens, NCI-H1693) was 2 µM, the IC50 (NCI-H1703; Homo sapiens, NCI-H1703) was 0.594 µM and the IC50 (NCI-H1792; Homo sapiens, NCI-H1792) was 0.377 µM. For the same molecule, the IC50 (NCI-H2122; Homo sapiens, NCI-H2122) was 0.0938 µM, the IC50 (NCI-H2141; Homo sapiens, NCI-H2141) was 1.19 µM and the IC50 (NCI-H2196; Homo sapiens, NCI-H2196) was 3.35 µM. It also gave an IC50 (NCI-H460; Homo sapiens, NCI-H460) of 0.101 µM, an IC50 (NCI-H522; Homo sapiens, NCI-H522) of 0.181 µM and an IC50 (NCI-H64; Homo sapiens, NCI-H64) of 0.0384 µM. The IC50 (SNU-16; Homo sapiens, SNU-16) was 13.1 µM, the IC50 (OE19; Homo sapiens, OE19) was 1.66 µM and the IC50 (RVH-421; Homo sapiens, RVH-421) was 0.0167 µM. The IC50 (SK-OV-3; Homo sapiens, SK-OV-3) was 0.524 µM, the IC50 (SW-620; Homo sapiens, SW-620) was under 0.0625 µM and the IC50 (T-24; Homo sapiens, T-24) was 9.94 µM. It also gave an IC50 (A2780; Homo sapiens, A2780) of 0.0208 µM, an IC50 (BC-3; Homo sapiens, BC-3) of 2.37 µM and an IC50 (CAL-12T; Homo sapiens, CAL-12T) of under 0.0625 µM. It also gave an IC50 (CAL-54; Homo sapiens, CAL-54) of 1.31 µM, an IC50 (UMUC3; Homo sapiens, UMUC3) of 0.291 µM and an IC50 (WSU-NHL; Homo sapiens, WSU-NHL) of 0.0755 µM. It also gave an IC50 (COLO-680N; Homo sapiens, COLO-680N) of 0.0505 µM.

CC(=O)O[C@H]1C(=O)[C@@]2(C)[C@H]([C@H](OC(=O)c3ccccc3)[C@]3(O)C[C@H](OC(=O)[C@H](O)[C@@H](NC(=O)c4ccccc4)c4ccccc4)C(C)=C1C3(C)C)[C@]1(OC(C)=O)CO[C@@H]1C[C@@H]2O [PACLITAXEL] was tested, and the IC50 (DMS-153; Homo sapiens, DMS-153) was over 0.102 µM, the IC50 (EHEB; Homo sapiens, EHEB) was over 0.102 µM and the IC50 (KARPAS-422; Homo sapiens, KARPAS-422) was 0.0565 µM. For the same molecule, the IC50 (LU-165; Homo sapiens, LU-165) was over 0.102 µM, the IC50 (MOLT-13) was 0.0164 µM and the IC50 (NB1; Homo sapiens, NB1) was 0.0269 µM. The IC50 (NB14) was over 0.102 µM, the IC50 (NCI-H2141; Homo sapiens, NCI-H2141) was 0.081 µM and the IC50 (NCI-H2196; Homo sapiens, NCI-H2196) was over 0.102 µM. It also gave an IC50 (NCI-H64; Homo sapiens, NCI-H64) of 0.0386 µM, an IC50 (SNU-16; Homo sapiens, SNU-16) of 0.0101 µM and an IC50 (BC-3; Homo sapiens, BC-3) of 0.0234 µM. The IC50 (WSU-NHL; Homo sapiens, WSU-NHL) was over 0.102 µM.

In the case of BLEOMYCIN, the IC50 (COLO-792; colo-792) is reported as 26.4 µM, the IC50 (CaR-1; car-1) is reported as 4.45 µM and the IC50 (Capan-2; capan-2) is reported as 24.2 µM. It also gave an IC50 (ChaGo-K-1; chago-k-1) of 16.4 µM, an IC50 (DMS-153; dms-153) of 165 µM and an IC50 (DMS-273; dms-273) of 2.98 µM. For the same molecule, the IC50 (EHEB; eheb) was 1.61 µM, the IC50 (FaDu; fadu) was 5.14 µM and the IC50 (G-401; g-401) was 3.29 µM. The IC50 (GMS-10; gms-10) was 2110 µM, the IC50 (HCC1954; hcc1954) was 84.2 µM and the IC50 (HN; hn) was 29.1 µM. The IC50 (HOS; hos) was 0.56 µM, the IC50 (HT-1080; ht-1080) was 0.234 µM and the IC50 (HT55; ht55) was 1040 µM. For the same molecule, the IC50 (Hs-578T; hs-578-t) was 344 µM, the IC50 (KARPAS-422; karpas-422) was 168 µM and the IC50 (KYSE-180; kyse-180) was 3.8 µM. The IC50 (KYSE-450; kyse-450) was 1.93 µM, the IC50 (LU-165; lu-165) was 41.8 µM and the IC50 (MC-IXC; mc-ixc) was 3 µM. The IC50 (MDA-MB-157; mda-mb-157) was 307 µM, the IC50 (NB1; nb1) was 11.6 µM and the IC50 (NCI-H1623; nci-h1623) was 39 µM. The IC50 (NCI-H1693; nci-h1693) was 16.6 µM, the IC50 (NCI-H1703; nci-h1703) was 0.0161 µM and the IC50 (NCI-H1792; nci-h1792) was 2.57 µM. It also gave an IC50 (NCI-H2122; nci-h2122) of 0.51 µM, an IC50 (NCI-H2141; nci-h2141) of 36.1 µM and an IC50 (NCI-H2196; nci-h2196) of 22.8 µM. For the same molecule, the IC50 (NCI-H460; nci-h460) was 4.76 µM, the IC50 (NCI-H522; nci-h522) was 0.426 µM and the IC50 (NCI-H64; nci-h64) was 0.641 µM. It also gave an IC50 (SNU-16; snu-16) of 16100 µM, an IC50 (OE19; oe19) of 2.14 µM and an IC50 (RVH-421; rvh-421) of 2.57 µM. The IC50 (SK-OV-3; sk-ov-3) was 4.88 µM, the IC50 (SW-620; sw-620) was 3.56 µM and the IC50 (T-24; t-24) was 0.72 µM. For the same molecule, the IC50 (A2780; a2780) was 0.22 µM, the IC50 (BC-3; bc-3) was 0.521 µM and the IC50 (CAL-12T; cal-12t) was 0.259 µM. The IC50 (CAL-54; cal-54) was 0.191 µM, the IC50 (UMUC3; umuc3) was 0.956 µM and the IC50 (WSU-NHL; wsu-nhl) was 31.6 µM. It also gave an IC50 (COLO-680N; colo-680n) of 5.76 µM.
